According to patent publication US12071453B2, “Neuroactive steroids, compositions, and uses thereof” (Sage Therapeutics, Inc., priority 2013, dated 2024):

Columns and labels:
[1] = target: [35S]-TBPS binding in rat brain cortical membranes; experiment: Steroid inhibition of [35S]-TBPS binding, rat brain cortical membranes; settings: 3 nM [35S]-TBPS, in the presence of 5 μM GABA, read-out: 35S-TBPS Radioligand Displacement (IC50)
Experimental: TBPS binding assays using rat brain cortical membranes in the presence of 5 μM GABA has been described (Gee et al, J. Pharmacol. Exp. Ther. 1987, 241, 346-353; Hawkinson et al, Mol. Pharmacol. 1994, 46, 977-985; Lewin, A. H et al., Mol. Pharmacol. 1989, 35, 189-194).
Briefly, cortices are rapidly removed following decapitation of carbon dioxide-anesthetized Sprague-Dawley rats (200-250 g). The cortices are homogenized in 10 volumes of ice-cold 0.32 M sucrose using a glass/teflon homogenizer and centrifuged at 1500×g for 10 min at 4° C. The resultant supernatants are centrifuged at 10,000×g for 20 min at 4° C. to obtain the P2 pellets. The P2 pellets are resuspended in 200 mM NaCl/50 mM Na—K phosphate pH 7.4 buffer and centrifuged at 10,000×g for 10 min at 4° C. This washing procedure is repeated twice and the pellets are resuspended in 10 volumes of buffer. Aliquots (100 μL) of the membrane suspensions are incubated with 3 nM [^35S]-TBPS and 5 μL aliquots of test drug dissolved in dimethyl sulfoxide (DMSO) (final 0.5%) in the presence of 5 μM GABA. The incubation is brought to a final volume of 1.0 mL with buffer. Nonspecific binding is determined in the presence of 2 μM unlabeled TBPS and ranged from 15 to 25%. Following a 90 min incubation at room temp, the assays are terminated by filtration through glass fiber filters (Schleicher and Schuell No. 32) using a cell harvester (Brandel) and rinsed three times with ice-cold buffer. Filter bound radioactivity is measured by liquid scintillation spectrometry. Non-linear curve fitting of the overall data for each drug averaged for each concentration is done using Prism (GraphPad). […] The concentration of test compound producing 50% inhibition (IC50) of specific binding and the maximal extent of inhibition (Imax) are determined for the individual experiments with the same model used for the overall data and then the mean±SEM.s of the individual experiments are calculated.
Various compounds are or can be screened to determine their potential as modulators of [^35S]-TBPS binding in vitro. These assays are or can be performed in accordance with the above discussed procedures.

[2] = target: T1, GABAA receptors composed of the α1β2γ2 subunits (GABRA1/GABRB2/GABRG2) (Homo sapiens, UniProt P14867+P47870); experiment: Two Electrode Voltage Clamp (TEVC), GABA receptor potentiation in Xenopus laevis oocytes, α1β2γ2; format: cell-based; settings: 10 μM compound, 10 μM GABA, read-out: GABA (α1β2γ2) % efficacy at 10 μM
T1 construct: expressed in transfected cells; host or cells: Xenopus laevis oocytes, injected (ratio 1:1:1)
Experimental: The Two Electrode Voltage Clamp (TEVC) technique was used to investigate the effects of compounds at a concentration of 10 μM on GABAA receptors composed of the α1β2γ2 or α4β3δ subunits expressed in oocytes from the Xenopus laevis. GABA-evoked currents were recorded from oocytes that expressed the GABA receptors and the modulatory effects of the test items on these currents were investigated.
Ovaries were harvested from Xenopus laevis females that had been deeply anesthetized by cooling at 4° C. and immersion in Tricaine methanesulfonate (MS-222 at a concentration of 150 mg/L) in sodium bicarbonate (300 mg/L). Once anesthetized the animal was decapitated and pithed following the rules of animal rights from the Geneva canton. A small piece of ovary was isolated for immediate preparation while the remaining part was placed at 4° C. in a sterile Barth solution containing in mM NaCl 88, KCl 1, NaHCO3 2.4, HEPES 10, MgSO4·7H2O 0.82, Ca(NO3)2·4H2O 0.33, CaCl2·6H2O 0.41, at pH 7.4, and supplemented with 20 μg/ml of kanamycin, 100 unit/ml penicillin and 100 μg/ml streptomycin. All recordings were performed at 18° C. and cells were super-fused with medium containing in mM: NaCl 82.5, KCl 2.5, HEPES 5, CaCl2·2H2O, ·6H2O 1, pH 7.4.
Plasmids containing the RNAs of the human GABRA1/GABRB2/GABRG2 and GABRA4/GABRB3/GABRD genes were injected into oocytes using a proprietary automated injection device (Hogg el al., J. Neurosci. Methods, (2008) 169: 65-75). These genes encode for the α1β2γ2 and α4β3δ GABAA subunits respectively. Receptor expression was assessed using electrophysiology at least two days later. The ratio of RNA injection for α1β2γ2 was 1:1:1 and for α4β3δ was 5:1:5. Electrophysiological recordings were made using an automated process equipped with standard TEVC and data were captured and analyzed using a proprietary data acquisition and analysis software running under Matlab (Mathworks Inc.). The membrane potential of the oocytes was maintained at −80 mV throughout the experiments. To explore the effects of proprietary compounds, currents were evoked by applying 10 μM (α1β2γ2) or 3 μM (α4β3δ) GABA for 30 s. These concentrations approximated the EC50 concentration of GABA at each receptor subtype. Oocytes were then re-exposed to GABA again for 30 s. 15 s after beginning the GABA application, test article was co-applied at a concentration of 10 μM for 15 s. Potentiation of the peak current was assessed. Data was filtered at 10 Hz, captured at 100 Hz and analyzed using proprietary data acquisition and analysis software running under Matlab (Mathworks Inc.). For statistical analysis values were computed either with Excel (Microsoft) or Matlab (mathworks Inc.). To obtain mean measurements with standard deviations, all experiments were carried out using at least three cells.

T1 sequence (P14867 28-456): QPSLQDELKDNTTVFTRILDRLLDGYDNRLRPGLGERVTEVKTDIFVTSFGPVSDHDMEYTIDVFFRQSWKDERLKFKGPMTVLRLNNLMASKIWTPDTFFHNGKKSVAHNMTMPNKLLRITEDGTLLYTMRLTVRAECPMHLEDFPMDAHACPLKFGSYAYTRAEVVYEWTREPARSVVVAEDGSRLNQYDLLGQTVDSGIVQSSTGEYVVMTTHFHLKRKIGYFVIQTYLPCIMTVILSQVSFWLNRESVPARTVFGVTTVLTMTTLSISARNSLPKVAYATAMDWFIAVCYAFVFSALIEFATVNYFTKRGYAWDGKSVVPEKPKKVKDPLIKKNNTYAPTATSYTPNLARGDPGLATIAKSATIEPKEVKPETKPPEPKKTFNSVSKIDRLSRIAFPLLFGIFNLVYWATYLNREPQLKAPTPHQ
T1 sequence (P47870 26-512): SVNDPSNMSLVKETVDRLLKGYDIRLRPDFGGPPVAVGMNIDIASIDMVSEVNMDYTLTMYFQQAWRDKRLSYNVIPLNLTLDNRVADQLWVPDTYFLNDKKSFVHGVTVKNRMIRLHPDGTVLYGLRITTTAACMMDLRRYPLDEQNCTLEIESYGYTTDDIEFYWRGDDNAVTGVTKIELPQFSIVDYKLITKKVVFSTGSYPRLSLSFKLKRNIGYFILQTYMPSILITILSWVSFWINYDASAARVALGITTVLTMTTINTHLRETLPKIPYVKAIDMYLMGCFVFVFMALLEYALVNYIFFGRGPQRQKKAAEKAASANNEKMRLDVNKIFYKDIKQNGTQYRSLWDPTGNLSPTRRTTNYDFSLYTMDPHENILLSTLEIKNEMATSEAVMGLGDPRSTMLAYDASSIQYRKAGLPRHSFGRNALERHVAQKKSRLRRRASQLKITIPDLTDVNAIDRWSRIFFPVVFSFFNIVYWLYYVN
T1 sequence (P18507 40-475 partner): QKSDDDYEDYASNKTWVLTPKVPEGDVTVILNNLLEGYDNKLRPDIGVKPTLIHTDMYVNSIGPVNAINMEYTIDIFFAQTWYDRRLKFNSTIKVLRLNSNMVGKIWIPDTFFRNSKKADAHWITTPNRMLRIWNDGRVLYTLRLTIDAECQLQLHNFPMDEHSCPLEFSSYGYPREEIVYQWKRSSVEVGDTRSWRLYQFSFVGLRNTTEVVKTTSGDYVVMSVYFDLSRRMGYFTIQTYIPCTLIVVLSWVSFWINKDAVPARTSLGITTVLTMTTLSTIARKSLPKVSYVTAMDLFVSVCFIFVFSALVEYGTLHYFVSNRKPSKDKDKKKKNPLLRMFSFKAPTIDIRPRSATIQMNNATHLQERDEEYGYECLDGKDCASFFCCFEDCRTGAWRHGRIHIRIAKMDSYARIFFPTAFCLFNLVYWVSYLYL

| SMILES | IC50 [1] [nM] | Emax at 10 µM [2] [%] |
| --- | --- | --- |
| COC[C@]12CC[C@@](C)(O)C[C@@H]1CC[C@H]1[C@@H]3CC[C@H](C(=O)Cn4cccn4)[C@@]3(C)CC[C@@H]12 [Compound 2] | > 500 | – |
| COC[C@]12CC[C@@](C)(O)C[C@@H]1CC[C@H]1[C@@H]3CC[C@H](C(=O)CN4CCOCC4)[C@@]3(C)CC[C@@H]12 [Compound 4] | > 500 | – |
| COC[C@]12CC[C@@](C)(O)C[C@@H]1CC[C@H]1[C@@H]3CC[C@H](C(=O)CN4CCN(C(C)=O)CC4)[C@@]3(C)CC[C@@H]12 [Compound 5] | > 500 | – |
| CC(=O)N1CCN(CC(=O)[C@H]2CC[C@H]3[C@@H]4CC[C@H]5C[C@](C)(O)CC[C@]5(CO)[C@H]4CC[C@]23C)CC1 [Compound 6] | > 500 | – |
| C[C@@]1(O)CC[C@@]2(CO)[C@@H](CC[C@H]3[C@@H]4CC[C@H](C(=O)CN5CCN(S(C)(=O)=O)CC5)[C@@]4(C)CC[C@@H]32)C1 [Compound 7] | > 500 | – |
| C[C@@]1(O)CC[C@@]2(CO)[C@@H](CC[C@H]3[C@@H]4CC[C@H](C(=O)CN5CCOCC5)[C@@]4(C)CC[C@@H]32)C1 [Compound 9] | > 500 | – |
| C[C@@]1(O)CC[C@@]2(CO)[C@@H](CC[C@H]3[C@@H]4CC[C@H](C(=O)Cn5nccn5)[C@@]4(C)CC[C@@H]32)C1 [Compound 10] | > 500 | – |
| C[C@@]1(O)CC[C@@]2(CO)[C@@H](CC[C@H]3[C@@H]4CC[C@H](C(=O)Cn5cccn5)[C@@]4(C)CC[C@@H]32)C1 [Compound 11] | > 500 | – |
| C[C@@]1(O)CC[C@@]2(CO)[C@@H](CC[C@H]3[C@@H]4CC[C@H](C(=O)Cn5ccnn5)[C@@]4(C)CC[C@@H]32)C1 [Compound 12] | > 500 | – |
| COC[C@]12CC[C@@](C)(O)C[C@@H]1CC[C@H]1[C@@H]3CC[C@H](C(=O)Cn4nnc(C)n4)[C@@]3(C)CC[C@@H]12 [Compound 17] | > 500 | 1000 to 1500 |
| COC[C@]12CC[C@@](C)(O)C[C@@H]1CC[C@H]1[C@@H]3CC[C@H](C(=O)Cn4cc(C)cn4)[C@@]3(C)CC[C@@H]12 [Compound 20] | – | 500 to 1000 |
| COC[C@]12CC[C@@](C)(O)C[C@@H]1CC[C@H]1[C@@H]3CC[C@H](C(=O)Cn4cnc(C)c4)[C@@]3(C)CC[C@@H]12 [Compound 23] | 100 to 500 | 500 to 1000 |
| COC[C@]12CC[C@@](C)(O)C[C@@H]1CC[C@H]1[C@@H]3CC[C@H](C(=O)Cn4cc(S(C)(=O)=O)cn4)[C@@]3(C)CC[C@@H]12 [Compound 24] | 100 to 500 | 500 to 1000 |
| CCOC[C@]12CC[C@@](C)(O)C[C@@H]1CC[C@H]1[C@@H]3CC[C@H](C(=O)Cn4nnc(C)n4)[C@@]3(C)CC[C@@H]12 [Compound 25] | 10 to 50 | 500 to 1000 |
| COC[C@]12CC[C@@](C)(O)C[C@H]1CC[C@H]1[C@@H]3CC[C@H](C(=O)Cn4cc(C)cn4)[C@@]3(C)CC[C@@H]12 [Compound 28] | 50 to 100 | – |
| COC[C@]12CC[C@@](C)(O)C[C@@H]1CC[C@H]1[C@@H]3CC[C@H](C(=O)Cn4nc5ccccc5n4)[C@@]3(C)CC[C@@H]12 [Compound 40] | 10 to 50 | – |
| COC[C@]12CC[C@@H](O)C[C@@H]1CC[C@H]1[C@@H]3CC[C@H](C(=O)Cn4nccn4)[C@@]3(C)CC[C@@H]12 [Compound 90] | 50 to 100 | – |

| SMILES | IC50 [1] [nM] | Emax at 10 µM [2] [%] |
| --- | --- | --- |
| COC[C@]12CC[C@@H](O)C[C@@H]1CC[C@H]1[C@@H]3CC[C@H](C(=O)Cn4ccnn4)[C@@]3(C)CC[C@@H]12 [Compound 91] | 100 to 500 | – |
| CCOC(=O)c1ccn(CC(=O)[C@H]2CC[C@H]3[C@@H]4CC[C@H]5C[C@H](O)CC[C@]5(COC)[C@H]4CC[C@]23C)n1 [Compound 92] | 10 to 50 | – |
| COC[C@]12CC[C@@H](O)C[C@@H]1CC[C@H]1[C@@H]3CC[C@H](C(=O)Cn4cc(C)cn4)[C@@]3(C)CC[C@@H]12 [Compound 93] | 100 to 500 | – |
| COC[C@]12CC[C@@](C)(O)C[C@@H]1CC[C@H]1[C@@H]3CC[C@H](C(=O)Cn4nnc5c(F)c(F)ccc54)[C@@]3(C)CC[C@@H]12 [Compound 114] | 10 to 50 | – |
| COC[C@]12CC[C@@](C)(O)C[C@@H]1CC[C@H]1[C@@H]3CC[C@H](C(=O)Cn4nnc5ccc(F)c(F)c54)[C@@]3(C)CC[C@@H]12 [Compound 115] | 10 to 50 | – |
| COC[C@]12CC[C@@](C)(O)C[C@@H]1CC[C@H]1[C@@H]3CC[C@H](C(=O)Cn4cc(C#N)cn4)[C@@]3(C)CC[C@@H]12 [Compound 127] | 10 to 50 | – |
| COC[C@]12CC[C@@](C)(O)C[C@@H]1CC[C@H]1[C@@H]3CC[C@H](C(=O)Cn4nc5ccc(F)c(F)c5n4)[C@@]3(C)CC[C@@H]12 [Compound 128] | < 10 | – |
| COC[C@]12CC[C@@](C)(O)C[C@@H]1CC[C@H]1[C@@H]3CC[C@H](C(=O)Cn4nnc5c(F)c(Cl)ccc54)[C@@]3(C)CC[C@@H]12 [Compound 138] | 100 to 500 | – |
| COC[C@]12CC[C@@](C)(O)C[C@@H]1CC[C@H]1[C@@H]3CC[C@H](C(=O)Cn4nnc5ccc(OC(F)(F)F)cc54)[C@@]3(C)CC[C@@H]12 [Compound 144] | 50 to 100 | – |
| COC[C@]12CC[C@@](C)(O)C[C@@H]1CC[C@H]1[C@@H]3CC[C@H](C(=O)Cn4nnc5cc(OC(F)(F)F)ccc54)[C@@]3(C)CC[C@@H]12 [Compound 146] | 50 to 100 | – |
| COC[C@]12CC[C@@](C)(O)C[C@@H]1CC[C@H]1[C@@H]3CC[C@H](C(=O)Cn4cc5nccnc5n4)[C@@]3(C)CC[C@@H]12 [Compound 154] | > 500 | – |
| COC[C@]12CC[C@@](C)(O)C[C@@H]1CC[C@H]1[C@@H]3CC[C@H](C(=O)Cn4ncc5nccnc54)[C@@]3(C)CC[C@@H]12 [Compound 155] | 50 to 100 | – |
| COC[C@]12CC[C@@](C)(O)C[C@H]1CC[C@H]1[C@@H]3CC[C@H](C(=O)Cn4nnc5c(F)cccc54)[C@@]3(C)CC[C@@H]12 [Compound 157] | 10 to 50 | – |
| COC[C@]12CC[C@](O)(C(F)(F)F)C[C@H]1CC[C@H]1[C@@H]3CC[C@H](C(=O)Cn4nnc5c(F)c(F)ccc54)[C@@]3(C)CC[C@@H]12 [Compound 161] | 100 to 500 | – |
| COC[C@]12CC[C@](O)(C(F)(F)F)C[C@H]1CC[C@H]1[C@@H]3CC[C@H](C(=O)Cn4nc5ccc(F)c(F)c5n4)[C@@]3(C)CC[C@@H]12 [Compound 162] | 100 to 500 | – |
| CCOC[C@]12CC[C@@](C)(O)C[C@@H]1CC[C@H]1[C@@H]3CC[C@H](C(=O)Cn4cc(C#N)cn4)[C@@]3(C)CC[C@@H]12 [Compound 171] | 10 to 50 | – |
